Assay results: PubChem BioAssay AID2305 (GlaxoSmithKline (GSK), 2010)

What follows are compounds tested on P. falciparum 3D7 growth, pLDH absorbance (assay: P. falciparum 3D7 growth inhibition, dose response, strain 3D7 (AID 2305)).

First: CN1CCCC1CCNc1ncc2c(-c3ccc(NC(=O)Nc4cc(C(F)(F)F)ccc4F)c(F)c3)nn(C)c2n1 (stereo unspecified)
Second: Cc1cc(NC(=O)Nc2ccc3nc(C)oc3c2)c2cc(Cl)ccc2n1
The IC50 of the first is 3.9-fold lower: 290 nM for the first, 1120 nM for the second.

`CCN(CC)CCN(CCN(CC)CC)c1ccc2c(c1)Sc1c(Cl)ccc(Cl)c1S2` and `CC(C)c1ccc(NC(=O)N[C@H]2CCN(CCCCCNC(=O)/C=C/c3ccc(Cl)c(Cl)c3)C2)cc1` are within 1.5-fold of each other in IC50: 880 nM for the first, 710 nM for the second.

Compared with `Cc1cccc2[nH]c(-c3cccc(-c4ccc(NC(=O)NCc5cccc(F)c5)cc4)c3)nc12`, `Cc1cccc2[nH]c(-c3cccc(-c4ccc(NC(=O)NC(C)C)cc4)c3)nc12` is 3.1-fold higher in IC50: 240 nM for the first, 750 nM for the second.

`Cc1nc(-c2ccc(-c3ccc(NC(=O)c4coc5ccc(N6C[C@@H](C)N[C@@H](C)C6)cc45)cc3)c(C)c2)no1` and `COc1ccc(-c2ccc(NC(=O)c3cccc(C#N)c3)cc2)cc1CN1CCN(C)CC1` are within 1.5-fold of each other in IC50: 930 nM for the first, 710 nM for the second.

`COc1ccc2nccc([C@@H](O)CN3CCC(NC(=O)c4cc5c(Cl)cc(Cl)cc5[nH]4)CC3)c2c1` and `O=C(Nc1ccc(F)cc1)NC1CCN(c2ccnc3cc(Cl)ccc23)C1` (stereo unspecified) are within 1.5-fold of each other in IC50: 230 nM for the first, 220 nM for the second.

`CC(C)(C)OC(=O)N1CCC(C2CCN(C(=O)OC(C)(C)C)CC2)CC1` and `CC(C)(C)OC(=O)N1CCN(c2ccccc2NC(=O)c2cccc(C(F)(F)F)c2Oc2ccc(F)cc2)CC1` are within 1.5-fold of each other in IC50: 1160 nM for the first, 860 nM for the second.

Compared with `CN1CCN(CCCCCCNc2c3ccccc3nc3ccccc23)CC1`, `O=C(Nc1ccccc1)c1nn(CCCN2CCC(N3CCCC3)CC2)cc1-c1ccc(Cl)c(Cl)c1` is 3-fold lower in IC50: 720 nM for the first, 240 nM for the second.

Going from `CC(C)CCNC(=O)C1Cc2c([nH]c3cc(Cl)ccc23)C2(CCN(CCc3ccccc3)CC2)N1` (stereo unspecified) to `CCNc1cc(C(=O)N[C@@H](Cc2ccccc2)[C@H](O)CNC23CCC(CC2)C3)cc(N2CCCCS2(=O)=O)c1`, the IC50 falls from 690 nM to 30 nM (23-fold).

Compared with `Nc1nccc2ccc(-c3ccc(OCc4ccccc4)cc3)cc12`, `CN(C)CCNCc1cccc(-c2ccc3c(Nc4ccc(Oc5ccccc5)cc4)ccnc3c2)c1` is 2-fold higher in IC50: 220 nM for the first, 440 nM for the second.

First: CC1(C)N=C(N)NC(NOCC=Cc2ccccc2)=N1
Second: COc1cc2ccccc2c(CON2C(N)=NC(N)=NC2(C)C)c1OC
The IC50 of the first is 4.6-fold higher: 230 nM for the first, 50 nM for the second.

First: O=C(Nc1ccsc1)Nc1cccc(-c2cccc(-c3nc4ccc(F)cc4[nH]3)c2)c1
Second: Cc1cccc2[nH]c(-c3ccc(-c4cccc(NC(=O)C(=O)c5cccn5C)c4)cc3)nc12
The IC50 of the first is 4.9-fold lower: 200 nM for the first, 980 nM for the second. The first is the more potent here.

`CCN1CC=C(c2c[nH]c3ccccc23)CC1` and `N#Cc1ccc(N2CCN(Cc3cccc(-c4ccc(-c5nc6ccccc6[nH]5)cc4)c3)CC2)nc1` are within 1.5-fold of each other in IC50: 1030 nM for the first, 1240 nM for the second.

Going from `Cc1[nH]c(C)c(-c2ccc(Oc3ccc(Cl)cc3)cc2)c(=O)c1I` to `CNCCN(C)C(=O)Oc1c(Br)c(C)nc(C)c1-c1ccc(Oc2ccc(OC(F)(F)F)cc2)cc1`, the IC50 falls from 960 nM to 110 nM (8.7-fold).

Compared with `C=CCC1OC(=O)c2cc(OC)cc(OC)c21` (stereo unspecified), `COc1ccc(OC)c(CC2c3ccc(Br)c(O)c3CCN2C)c1` (stereo unspecified) is 2.2-fold higher in IC50: 340 nM for the first, 750 nM for the second.

`Cc1ccc2c(NN=Cc3cccc(F)c3)cc(C)nc2c1` and `Fc1ccc2c(NN=Cc3ccccc3)ccnc2c1` are within 1.5-fold of each other in IC50: 860 nM for the first, 740 nM for the second.

`CC(C)C(C(=O)n1cc2c(ccc3nc(N)nc(N)c32)n1)C(C)C` and `COc1cc(Cc2cnc(N)nc2N)cc(OCC(C)(C)C(=O)O)c1OC` are within 1.5-fold of each other in IC50: 790 nM for the first, 1110 nM for the second.

First: CCCCCCN1CCC(NCc2cccc(C(F)(F)F)c2)CC1
Second: CCN1CCc2c1cc(C(=O)N[C@@H](Cc1ccccc1)[C@H](O)CNC(C)(C)c1cccc(C(F)(F)F)c1)cc2N1CCCCS1(=O)=O
The IC50 of the first is 2.3-fold higher: 250 nM for the first, 110 nM for the second. The second is the more potent here.

`COc1ccc(NC(=O)/C=C/c2ccc(Cl)c(C(F)(F)F)c2)cc1OCCN(C(C)C)C(C)C` and `CCOc1ccc(C(=O)Nc2nonc2-c2ccc(OC)c(OC)c2)cc1` are within 1.5-fold of each other in IC50: 630 nM for the first, 870 nM for the second.

Compared with `NC(N)=NCCN(Cc1ccccc1)c1ccccc1`, `CCn1cc(CN2C(=O)C(c3ccccc3)(c3ccccc3)N=C2N)cn1` is 2.3-fold higher in IC50: 350 nM for the first, 820 nM for the second.

Compared with `COc1ccc(NC(=O)[C@H](Cc2ccccc2)Nc2cc(C)nc(NCCc3ccccc3)n2)cc1`, `COc1cc2nccc(Nc3ccc(OCc4ccc(NC(C)=O)cc4)cc3)c2cc1OC` is 2.3-fold lower in IC50: 1240 nM for the first, 550 nM for the second. The second is the more potent here.

`CN(C)CCOc1cc(NC(=O)Nc2ccc(-c3ccncc3)c3ccccc23)ccc1I` and `FC(F)(F)c1cccc(Nc2nc(-c3ccccc3)nc3ncccc23)c1` are within 1.5-fold of each other in IC50: 780 nM for the first, 800 nM for the second.

`CCCNCc1ccc(-c2ccc(CN(CCOC)C(=O)[C@H]3CCCO3)cc2)nc1` and `COc1ccc(CNc2cc(C)nc3sc4c(c23)CCC2(C4)OCCO2)cc1` are within 1.5-fold of each other in IC50: 750 nM for the first, 950 nM for the second.

Going from `Cc1onc(-c2ccccc2)c1-c1nc(NCc2ccccc2Cl)no1` to `Cc1cc(Nc2ccc(Cl)cc2)n2nc(C(F)(F)F)nc2n1`, the IC50 falls from 700 nM to 120 nM (5.8-fold). The second is the more potent here.

Compared with `NCCNc1ccnc2cc(Cl)ccc12`, `Clc1cc(Cl)cc(Nc2ccnc(Nc3cc(Cl)cc(Cl)c3)n2)c1` is 5.2-fold higher in IC50: 130 nM for the first, 670 nM for the second.

`CCOc1cc(C(=O)NC2CC(C)(C)NC(C)(C)C2)ccc1-c1cc2cc(Cl)c(Cl)cc2[nH]1` and `Cc1cc(N2CCCCC2)nc2ccc(NC(=O)c3cncc(Br)c3)cc12` are within 1.5-fold of each other in IC50: 770 nM for the first, 720 nM for the second.

For `CC(C)(C)OC(=O)N[C@@H](CS(=O)(=O)CCN=C(N)COCc1ccccc1)C(=O)OC(C)(C)C`, the IC50 was 820 nM.
